# Literature values, collected in patent US8329663B2, “Compositions and methods for the treatment of chronic infections” (priority 2008, dated 2012).
# Like-named read-outs stand apart in the source and are kept apart here.
# What was measured:
# [1] = in water
# [2] = first (or only) pKa value listed
# [3] = second pKa value listed (polyprotic)
# [4] = third pKa value listed (polyprotic)
structure (smiles),measurement,setting,value
Cc1nc2n(c(=O)c1CCN1CCC(c3noc4cc(F)ccc34)CC1)CCCC2O (stereo not shown) [9-Hydroxy-risperidone],pKa (in H2O),[1]; [2],2.77
same,pKa (in H2O),[1]; [3],7.86
C[C@H](N)C(=O)N[C@@H](C)C(=O)N[C@H]1[C@@H]2CN(c3nc4c(cc3F)c(=O)c(C(=O)O)cn4-c3ccc(F)cc3F)C[C@@H]21 [Alatrofloxacin],pKa (in H2O),[1]; [2],0.64
same,pKa (in H2O),[1]; [3],8.12
CC1(C)S[C@@H]2[C@H](NC(=O)[C@H](N)c3ccc(O)cc3)C(=O)N2[C@H]1C(=O)O [Amoxicillin],pKa (in H2O),[1]; [2],2.8
same,pKa (in H2O),[1]; [3],7.2
CC(C)CN(C[C@@H](O)[C@H](Cc1ccccc1)NC(=O)O[C@H]1CCOC1)S(=O)(=O)c1ccc(N)cc1 [Amprenavir],pKa (in H2O),[1]; [2],1.76
same,pKa (in H2O),[1]; [3],11.54
CC(=O)OCC1=C(C(=O)O)N2C(=O)[C@@H](NC(=O)CSc3ccncc3)[C@H]2SC1 [Cephapirin],pKa (in H2O),[1]; [2],2.15
same,pKa (in H2O),[1]; [3],5.44
CN(C)CCc1c[nH]c2ccccc12 [Dimethyltryptamine],pKa (in H2O),[1]; [2],2
O=C(O)c1cccc(C(=O)O)n1 [Dipicolinic Acid],pKa (in H2O),[1]; [3],4.97
C[C@H]1c2cccc(O)c2C(=O)C2=C(O)[C@]3(O)C(=O)C(C(N)=O)=C(O)[C@@H](N(C)C)[C@@H]3[C@@H](O)[C@@H]21 [Doxycycline],pKa (in H2O),[1]; [2],3.5
same,pKa (in H2O),[1]; [3],7.7
same,pKa (in H2O),[1]; [4],9.5
O=C(O)c1ccccc1Nc1cccc(C(F)(F)F)c1 [Flufenamic acid],pKa (in H2O),[1]; [2],3.9
CCOC(=O)c1ncn2c1CN(C)C(=O)c1cc(F)ccc1-2 [Flumazenil],pKa (in H2O),[1]; [2],1.7
OCCOCCN1CCN(C(c2ccccc2)c2ccc(Cl)cc2)CC1 (stereo not shown) [Hydroxyzine],pKa (in H2O),[1]; [2],1.8
NNC(=O)c1ccncc1 [Isoniazid],pKa (in H2O),[1]; [2],1.82
C[N+](C)(C)C[C@H](O)CC(=O)[O-] [L-carnitine],pKa (in H2O),[1]; [2],3.8
Cc1ccccc1-n1c(C)nc2ccccc2c1=O [Methaqualone],pKa (in H2O),[1]; [2],2.5
NCC1(CC(=O)O)CCCCC1 [Neurontin],pKa (in H2O),[1]; [2],3.68
same,pKa (in H2O),[1]; [3],10.70
COc1ccc2[nH]c([S+]([O-])Cc3ncc(C)c(OC)c3C)nc2c1 (stereo not shown) [Omeprazole],pKa (in H2O),[1]; [3],8.8
CCCN(CCC)S(=O)(=O)c1ccc(C(=O)O)cc1 [Probenicid],pKa (in H2O),[1]; [2],3.4
CN(C)CCc1c[nH]c2cccc(OP(=O)(O)O)c12 [Psilocybin],pKa (in H2O),[1]; [2],0.2
CO[C@H]1/C=C/O[C@@]2(C)Oc3c(C)c(O)c4c(O)c(c(/C=N/N5CCN(C)CC5)c(O)c4c3C2=O)NC(=O)/C(C)=C\C=C\[C@H](C)[C@H](O)[C@@H](C)[C@@H](O)[C@@H](C)[C@H](OC(C)=O)[C@@H]1C [Rifampin],pKa (in H2O),[1]; [2],1.7
same,pKa (in H2O),[1]; [3],7.9
O=P(O)(O)C(O)(Cc1cccnc1)P(=O)(O)O [Risedronic acid],pKa (in H2O),[1]; [2],0.32
same,pKa (in H2O),[1]; [3],5.09
CCS(=O)(=O)CCn1c([N+](=O)[O-])cnc1C [Tinidazole],pKa (in H2O),[1]; [2],2.34
CC(C)[C@H](N)C(=O)OCCOCn1cnc2c(=O)[nH]c(N)nc21 [Valacyclovir],pKa (in H2O),[1]; [2],1.90
same,pKa (in H2O),[1]; [3],7.47
same,pKa (in H2O),[1]; [4],9.43
CC[C@H]1OC(=O)[C@H](C)[C@@H](O[C@H]2C[C@@](C)(OC)[C@@H](O)[C@H](C)O2)[C@H](C)[C@@H](O[C@@H]2O[C@H](C)C[C@H](N(C)C)[C@H]2O)[C@](C)(OC)C[C@@H](C)C(=O)[C@H](C)[C@@H](O)[C@]1(C)O [clarithromycin],in vitro susceptibility of C. pneumoniae,C. pneumoniae,susceptible in vitro
CC[C@H]1OC(=O)[C@H](C)[C@@H](O[C@H]2C[C@@](C)(OC)[C@@H](O)[C@H](C)O2)[C@H](C)[C@@H](O[C@@H]2O[C@H](C)C[C@H](N(C)C)[C@H]2O)[C@](C)(O)C[C@@H](C)C(=O)[C@H](C)[C@@H](O)[C@]1(C)O [erythromycin],in vitro susceptibility of C. pneumoniae,C. pneumoniae,susceptible in vitro
C[C@@H]1CN(c2c(F)c(N)c3c(=O)c(C(=O)O)cn(C4CC4)c3c2F)C[C@H](C)N1 [sparfloxacin],in vitro susceptibility of C. pneumoniae,C. pneumoniae,susceptible in vitro
